# Reference: paper PMC11694070, “Development of 6-amido-4-aminoisoindolyn-1,3-diones as p70S6K1 inhibitors and potential breast cancer therapeutics” (Frontiers in Molecular Biosciences, 2024)
# How the values were obtained:
# p70S6K1 = p70S6K1 (Homo sapiens, UniProt P23443); assay: Z′-LYTE biochemical kinase inhibition assay (SelectScreen, Thermo Fisher); settings: for inhibition at 10 µM: 10 µM compound concentration, high-throughput single-concentration screen; for IC50 / IC50 of inhibition of p70S6K1: 10-point titration, 3-fold dilutions from 25 μM
# Chain of p70S6K1 (P23443 24-525): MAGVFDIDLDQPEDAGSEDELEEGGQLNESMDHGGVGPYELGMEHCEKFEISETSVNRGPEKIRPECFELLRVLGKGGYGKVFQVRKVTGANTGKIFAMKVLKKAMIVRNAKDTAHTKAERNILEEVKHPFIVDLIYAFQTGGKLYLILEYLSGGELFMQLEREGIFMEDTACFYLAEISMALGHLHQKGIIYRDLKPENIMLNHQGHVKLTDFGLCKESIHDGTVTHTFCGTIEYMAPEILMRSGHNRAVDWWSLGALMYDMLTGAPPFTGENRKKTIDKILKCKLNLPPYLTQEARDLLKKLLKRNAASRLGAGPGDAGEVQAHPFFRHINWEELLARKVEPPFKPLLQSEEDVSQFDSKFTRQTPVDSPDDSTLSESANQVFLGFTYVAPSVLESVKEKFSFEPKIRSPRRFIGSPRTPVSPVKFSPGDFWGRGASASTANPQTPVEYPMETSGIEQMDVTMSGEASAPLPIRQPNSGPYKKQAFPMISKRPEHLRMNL
# Method: The high-throughput and dose-response curve assays against kinases were performed using the services of SelectScreen™ Biochemical Kinase Profiling Service by Thermo Fisher Scientific (Table 2; Supplementary Figure S13). The Z ´-LYTE biochemical assay employs a fluorescence-based, coupled-enzyme format based on the differential sensitivity of phosphorylated and non-phosphorylated peptides to proteolytic cleavage. The peptide substrate is labeled with two fluorophores—one at each end—that make up a fluorescence resonance energy transfer (FRET) pair. In the primary reaction, the kinase transfers the gamma-phosphate of ATP to a single tyrosine, serine, or threonine residue in a synthetic FRET-peptide. In the secondary reaction, a site-specific protease recognizes and cleaves non-phosphorylated FRET peptides. Phosphorylation of FRET-peptides suppresses cleavage by the development reagent. Cleavage disrupts FRET between the donor (i.e., coumarin) and acceptor (i.e., fluorescein) fluorophores on the FRET-peptide, whereas uncleaved, phosphorylated FRET-peptides maintain FRET. A ratiometric method, which calculates the emission ratio of donor emission to acceptor emission after excitation of the donor fluorophore at 400 nm, is used to quantitate reaction progress, as shown in the equation below.” Emission ratio=Coumarin emission 445 nm/Flourescein emission 520 nm.
# The test compounds were screened in 1% DMSO (final) in the well. For 10-point titrations, 3-fold serial dilutions were conducted from the starting concentration of 25 μM.
# All peptide/kinase mixtures are diluted to a 2× working concentration in the appropriate kinase Buffer. The 2X RPS6KB1 (p70S6K)/Ser/Thr 07 mixture is prepared in 50 mM HEPES pH 7.5, 0.01% BRIJ-35, 10 mM MgCl2, 1 mM EGTA. The final 10 µL kinase reaction consists of 2.87–17.7 ng RPS6KB1 (p70S6K) and 2 µM Ser/Thr 07 in 50 mM HEPES pH 7.5, 0.01% BRIJ-35, 10 mM MgCl2, 1 mM EGTA. After the 1 h kinase reaction incubation, 5 µL of a 1:45000 dilution of Development Reagent A is added.
# All ATP Solutions are diluted to a 4X working concentration in kinase buffer (50 mM HEPES pH 7.5, 0.01% BRIJ-35, 10 mM MgCl2, 1 mM EGTA). ATP Km apparent was previously determined using a Z′-LYTE assay.
# Bar-coded Corning, low volume NBS, black 384-well plate (Corning Cat. #4514). • 1. 100 nL 100X test compound in 100% DMSO • 2. 2.4 µL kinase buffer • 3. 5 μL 2X peptide/kinase mixture • 4. 2.5 µL 4X ATP solution • 5. 30-s plate shake • 6. 60-min kinase reaction incubation at room temperature • 7. 5 μL Development Reagent solution • 8. 30-s plate shake • 9. 60-min Development Reaction incubation at room temperature • 10. Read on the fluorescence plate reader and analyze the data
# The SelectScreenTM Biochemical Kinase Profiling Service by ThermoFisher Scientific was used to perform a high-throughput kinase inhibition assay at a single concentration as well as 10-point titrations to generate the dose-response curves for IC50 calculations. The Z′-LYTE biochemical assay, which is a FRET-based assay, was used to analyze the compounds for p70S6K1 inhibition. Compounds 5a–f were subjected to an initial high-throughput screening against p70S6K1 at 10 µM concentration (Table 1).
# MCF7 E3 cells = assay: MCF-7 E3 cell proliferation assay (alamarBlue); type: cell-based; settings: Homo sapiens, 10 μM compound, in the presence of E2 (10^−10 M), estrogen-deprived cells
# Method: Human breast tumor cells MCF-7 subclone E3 were routinely maintained in DMEM medium (Mediatech) supplemented with non-essential amino acid (Gibco), sodium pyruvate (Gibco), L-glutamine (Gibco), gentamicin (Gibco), and 10% fetal bovine serum (FBS) (Hyclone). For the proliferation experiment, the MCF-7 monolayer was dispersed into suspension in DMEM medium with 10% FBS, and 5 × 10^5 cells were seeded into a T-25 flask. The medium was aspirated from the cells, washed with phosphate buffer saline, and cultured with DMEM medium containing dextran-coated charcoal (DCC) FBS for 6 days. After 6 days, the cells were dispersed into suspension, counted, and 1.8 × 10^4 cells per well in a 100 µL DCC medium was subcultured into 96-well plates. After 24 h incubation, the medium was aspirated and replaced with the test compound at 10^−5 M. The cells were dosed again after 3 days and grown for another 3 days. Measurement for cell proliferation was performed with alamarBlue (Bio-Rad) on a plate reader (BioTek Synergy Neo2) with 560 nm excitation and 590 nm emission. The experiments were performed in quadruplicate.
# The MCF7 cell line is often used in studies involving ERα overexpressing BC. It is well-established that overexpression of estrogen leads to overexpression of p70S6K1 due to the costimulatory relationship between them, thereby driving the progression of BC ([Fullwood et al., 2009]; [Maruani et al., 2012]). The knockdown or absence of estrogen was partially abrogated by p70S6K1 rescuing and promoting ERα activity ([Holz, 2012]; [Yamnik et al., 2009]). For these reasons, MCF7 cells were used for the proliferation studies in the presence of our p70S6K1 inhibitors. MCF7 E3 cells were grown under estrogen-deprived conditions and treated with 10 μM concentrations of the compounds with and without E2 (10^−10 M). The proliferation was measured using alamarBlue (Figure 5). Compound 5b, with the best p70S6K1 inhibition potency of 0.4 μM IC50 value, inhibited the proliferation of MCF7 E3 cells by 60% in the presence of E2. […] The trend of MCF7 E3 proliferation was directly proportional to the p70S6K1 inhibition potency.
# [1] = tested on: rpS6 phosphorylation (S235/236, S240/244); assay: Western blot of rpS6 and phospho-rpS6 in MCF7 cells; type: cell-based, Human; settings: MCF7 cells estrogen deprived, 5 µM and 10 µM, with β estradiol, 24 h and 48 h
# Method: Total proteins were isolated using standard protocols as previously described ([Greenberg et al., 2022]; [Kim H. et al., 2013]). In brief, ice-cold RIPA lysis buffer containing phosphatase and protease inhibitors (Santa Cruz Biotechnology, Dallas, TX, USA) was used to lyse cells. The clarified lysate protein concentration was measured using Bradford reagent (Thermo Scientific, Waltham, MA, USA). The proteins were separated using a 4%–20% SDS-PAGE gradient gel and transferred onto a PVDF membrane (Bio-Rad, Hercules, CA, USA). A 1X blocking buffer was used to block the non-specific binding sites. The membranes were washed with Tris-buffered saline (Bio-Rad) containing 0.1% Tween-20 (Sigma-Aldrich, St. Louis, MO, USA). Membranes were incubated overnight with primary antibodies at 4°C. […] Immune complexes were detected with appropriate secondary antibodies from Invitrogen (Camarillo, CA, USA) and Clarity Western ECL Substrate (Bio-Rad), as described ([Greenberg et al., 2022]). […] Results were expressed as the standard error of the mean (±SEM). Significant changes from controls or E2 treated group were determined by a two-tailed Student’s t-test, and p-values of <0.05 were considered significant. […]
# [2] = set-up: method as in Li et al., 2010; Motzer et al., 2015; Tolcher et al., 2014; settings: given with erlotinib and everolimus; ref Li et al., 2010; Motzer et al., 2015; Tolcher et al., 2014; cited from earlier work
# [3] = set-up: method as in Pearce et al., 2010; Segatto et al., 2016; settings: ref Pearce et al., 2010, Segatto et al., 2016, cited from earlier work
# cervical cancer cells = tested on: cervical cancer cells; set-up: method as in Nam et al., 2019; settings: ref Nam et al., 2019; cited from earlier work
SMILES,inhibition at 10 µM (p70S6K1) [%],IC50 (p70S6K1) [nM],inhibition at 10 µM (MCF7 E3 cells) [%],IC50 of inhibition of p70S6K1 (p70S6K1),also measured
"Nc1cc(N)c2c(c1)C(=O)NC2=O [Compound 4, 4,6-diaminoisoindoline-1,3-dione]",70,1200,–,–,–
"Nc1cc(NC(=O)Cc2ccccc2)cc2c1C(=O)NC2=O [Compound 5b, N-(7-amino-1,3-dioxoisoindolin-5-yl)-2-phenylacetamide]",> 90,400,60,sub-micromolar,"rpS6 protein expression and phosphorylation (S235/236, S240/244), immunoblot band intensity [1]: significant decreases"
"Nc1cc(NC(=O)Cc2ccc(C(F)(F)F)cc2)cc2c1C(=O)NC2=O [Compound 5c, N-(7-amino-1,3-dioxoisoindolin-5-yl)-2-(4-(trifluoromethyl)phenyl)acetamide]",80,5450,35,–,–
"Nc1cc(NC(=O)Cc2cccc(C(F)(F)F)c2)cc2c1C(=O)NC2=O [Compound 5d, N-(7-amino-1,3-dioxoisoindolin-5-yl)-2-(3-(trifluoromethyl)phenyl)acetamide]",> 90,510,56,sub-micromolar,–
"Nc1cc(NC(=O)C23CC4CC(CC(C4)C2)C3)cc2c1C(=O)NC2=O [Compound 5e, N-(7-amino-1,3-dioxoisoindolin-5-yl)adamantane-1-carboxamide]",22,–,–,–,–
"Nc1cc(NC(=O)Cc2ccc(Br)cc2)cc2c1C(=O)NC2=O [Compound 5f, N-(7-amino-1,3-dioxoisoindolin-5-yl)-2-(4-bromophenyl)acetamide]",93,750,40,sub-micromolar,–
Cn1cc(-c2ccc(F)c(C(F)(F)F)c2)nc1C1CCN(c2ncnc3[nH]ncc23)CC1 [LY-2584702],–,–,–,–,tolerability in Phase I trials [2]: not well-tolerated
CCc1cncnc1N1CCN(Cc2nc3cc(C(F)(F)F)ccc3[nH]2)CC1 [PF-4708671],–,–,–,–,tolerability in preclinical studies ([3]; preclinical studies for breast cancer): well-tolerated; blood–brain barrier (BBB) penetration [3]: poor blood–brain barrier (BBB) penetrant
COC(=O)[C@@H](Cc1ccc(O)c(O)c1)OC(=O)/C=C/c1ccc(O)c(O)c1 [Rosmarinic acid methyl ester],–,–,–,–,autophagy and apoptotic cell death (cervical cancer cells): increase in autophagy and apoptotic cell death
